The CheMixHub viscosity set
± gives the uncertainty stated by the source.

Experiment: xn = mol fraction of the nth substance listed

Cc1ccccn1 + Brc1ccccc1
viscosity [mPa·s], 101 kPa
Conditions | x1 = 0.2 | x1 = 0.4 | x1 = 0.6 | x1 = 0.8
293.15 K | 1.072 ± 0.018 | 1.016 ± 0.017 | 0.954 ± 0.016 | 0.885 ± 0.015
313.15 K | 0.833 ± 0.014 | 0.785 ± 0.014 | 0.736 ± 0.013 | 0.684 ± 0.012

ClC=C(Cl)Cl + C1CCOC1
303.15 K, 101 kPa
Conditions | viscosity [mPa·s]
x2 = 0.0614 | 0.5484 ± 0.0046
x2 = 0.1057 | 0.5631 ± 0.0047
x2 = 0.2281 | 0.5879 ± 0.0049
x2 = 0.3529 | 0.5932 ± 0.005
x2 = 0.4929 | 0.5817 ± 0.0049
x2 = 0.5166 | 0.5781 ± 0.0049
x2 = 0.64 | 0.556 ± 0.0047
x2 = 0.7608 | 0.5289 ± 0.0045
x2 = 0.8813 | 0.4983 ± 0.0043
x2 = 0.9421 | 0.4822 ± 0.0042

ClC=C(Cl)Cl + C1COCCO1
101.33 kPa
Conditions | viscosity [mPa·s]
298.15 K, x1 = 0.1027 | 1.036 ± 0.017
298.15 K, x1 = 0.2015 | 0.963 ± 0.016
298.15 K, x1 = 0.3002 | 0.909 ± 0.014
298.15 K, x1 = 0.409 | 0.854 ± 0.013
298.15 K, x1 = 0.502 | 0.814 ± 0.012
298.15 K, x1 = 0.6078 | 0.767 ± 0.011
298.15 K, x1 = 0.6921 | 0.732 ± 0.01
298.15 K, x1 = 0.8076 | 0.685 ± 0.009
298.15 K, x1 = 0.9058 | 0.649 ± 0.009
303.15 K, x2 = 0.0577 | 0.5863 ± 0.0044
303.15 K, x2 = 0.1189 | 0.6434 ± 0.0048
303.15 K, x2 = 0.289 | 0.7496 ± 0.0055
303.15 K, x2 = 0.3696 | 0.7787 ± 0.0057
303.15 K, x2 = 0.4012 | 0.7885 ± 0.0058
303.15 K, x2 = 0.5728 | 0.837 ± 0.0061
303.15 K, x2 = 0.6186 | 0.8515 ± 0.0062
303.15 K, x2 = 0.7841 | 0.9264 ± 0.0067
303.15 K, x2 = 0.892 | 0.9979 ± 0.0072
303.15 K, x2 = 0.9513 | 1.045 ± 0.0075
308.15 K, x1 = 0.1027 | 0.907 ± 0.015
308.15 K, x1 = 0.2015 | 0.852 ± 0.014
308.15 K, x1 = 0.3002 | 0.804 ± 0.013
308.15 K, x1 = 0.409 | 0.757 ± 0.012
308.15 K, x1 = 0.502 | 0.727 ± 0.011
308.15 K, x1 = 0.6078 | 0.693 ± 0.01
308.15 K, x1 = 0.6921 | 0.67 ± 0.009
308.15 K, x1 = 0.8076 | 0.64 ± 0.009
308.15 K, x1 = 0.9058 | 0.613 ± 0.008
318.15 K, x1 = 0.1027 | 0.815 ± 0.013
318.15 K, x1 = 0.2015 | 0.764 ± 0.012
318.15 K, x1 = 0.3002 | 0.726 ± 0.011
318.15 K, x1 = 0.409 | 0.69 ± 0.011
318.15 K, x1 = 0.502 | 0.673 ± 0.01
318.15 K, x1 = 0.6078 | 0.653 ± 0.009
318.15 K, x1 = 0.6921 | 0.635 ± 0.009
318.15 K, x1 = 0.8076 | 0.605 ± 0.008
318.15 K, x1 = 0.9058 | 0.586 ± 0.008

NC1CCCCC1 + C1COCO1
298.15 K, 101 kPa
Conditions | viscosity [mPa·s]
x2 = 0.1295 | 1.517 ± 0.012
x2 = 0.2508 | 1.331 ± 0.01
x2 = 0.3646 | 1.174 ± 0.0093
x2 = 0.4716 | 1.044 ± 0.0084
x2 = 0.5724 | 0.9345 ± 0.0076
x2 = 0.6676 | 0.8431 ± 0.007
x2 = 0.7575 | 0.7633 ± 0.0064
x2 = 0.8427 | 0.6955 ± 0.0059
x2 = 0.9234 | 0.6344 ± 0.0055

CC(O)CO (stereo not given) + CC#N
viscosity [mPa·s], 100 kPa
Conditions | x2 = 0.1127 | x2 = 0.2 | x2 = 0.3055 | x2 = 0.4021 | x2 = 0.5008 | x2 = 0.5989 | x2 = 0.6987 | x2 = 0.7958 | x2 = 0.8961
293.15 K | 31.4 ± 6.3 | 20.3 ± 4.1 | 12.2 ± 2.4 | 7.53 ± 1.5 | 4.71 ± 0.94 | 2.9 ± 0.58 | 1.82 ± 0.36 | 1.1 ± 0.22 | 0.66 ± 0.13
298.15 K | 25.4 ± 5.1 | 16.9 ± 3.4 | 10.3 ± 2.1 | 6.21 ± 1.2 | 4.02 ± 0.81 | 2.42 ± 0.49 | 1.57 ± 0.31 | 0.97 ± 0.19 | 0.59 ± 0.12
303.15 K | 20.8 ± 4.2 | 13.8 ± 2.8 | 8.68 ± 1.7 | 5.48 ± 1.1 | 3.52 ± 0.71 | 2.25 ± 0.45 | 1.4 ± 0.28 | 0.87 ± 0.17 | 0.53 ± 0.11

ClC=C(Cl)Cl + CC#N
Conditions | viscosity [mPa·s]
298.15 K, 101 kPa, x1 = 0.0501 | 0.358 ± 0.056
298.15 K, 101 kPa, x1 = 0.099 | 0.373 ± 0.058
298.15 K, 101 kPa, x1 = 0.2003 | 0.406 ± 0.061
298.15 K, 101 kPa, x1 = 0.3001 | 0.434 ± 0.064
298.15 K, 101 kPa, x1 = 0.3984 | 0.461 ± 0.068
298.15 K, 101 kPa, x1 = 0.4976 | 0.485 ± 0.07
298.15 K, 101 kPa, x1 = 0.5968 | 0.504 ± 0.072
298.15 K, 101 kPa, x1 = 0.7206 | 0.526 ± 0.075
298.15 K, 101 kPa, x1 = 0.7798 | 0.532 ± 0.075
298.15 K, 101 kPa, x1 = 0.9038 | 0.541 ± 0.076
298.15 K, 101 kPa, x2 = 0.0708 | 0.524 ± 0.005
298.15 K, 101 kPa, x2 = 0.1846 | 0.515 ± 0.005
298.15 K, 101 kPa, x2 = 0.3572 | 0.494 ± 0.005
298.15 K, 101 kPa, x2 = 0.4854 | 0.471 ± 0.005
298.15 K, 101 kPa, x2 = 0.5616 | 0.458 ± 0.005
298.15 K, 101 kPa, x2 = 0.6719 | 0.433 ± 0.005
298.15 K, 101 kPa, x2 = 0.775 | 0.403 ± 0.004
298.15 K, 101 kPa, x2 = 0.9121 | 0.369 ± 0.004
303.15 K, 101.32 kPa, x2 = 0.0893 | 0.5209 ± 0.0072
303.15 K, 101.32 kPa, x2 = 0.1803 | 0.5171 ± 0.0071
303.15 K, 101.32 kPa, x2 = 0.2502 | 0.5072 ± 0.0071
303.15 K, 101.32 kPa, x2 = 0.3697 | 0.4877 ± 0.0069
303.15 K, 101.32 kPa, x2 = 0.5273 | 0.4539 ± 0.0066
303.15 K, 101.32 kPa, x2 = 0.6422 | 0.4238 ± 0.0064
303.15 K, 101.32 kPa, x2 = 0.7089 | 0.4071 ± 0.0063
303.15 K, 101.32 kPa, x2 = 0.7814 | 0.3824 ± 0.0061
303.15 K, 101.32 kPa, x2 = 0.8363 | 0.3654 ± 0.0059
303.15 K, 101.32 kPa, x2 = 0.9308 | 0.3451 ± 0.0058
308.15 K, 101 kPa, x2 = 0.0708 | 0.483 ± 0.005
308.15 K, 101 kPa, x2 = 0.1846 | 0.471 ± 0.005
308.15 K, 101 kPa, x2 = 0.3572 | 0.451 ± 0.005
308.15 K, 101 kPa, x2 = 0.4854 | 0.43 ± 0.005
308.15 K, 101 kPa, x2 = 0.5616 | 0.417 ± 0.005
308.15 K, 101 kPa, x2 = 0.6719 | 0.396 ± 0.004
308.15 K, 101 kPa, x2 = 0.775 | 0.37 ± 0.004
308.15 K, 101 kPa, x2 = 0.9121 | 0.341 ± 0.004
318.15 K, 101 kPa, x2 = 0.0708 | 0.443 ± 0.005
318.15 K, 101 kPa, x2 = 0.1846 | 0.431 ± 0.005
318.15 K, 101 kPa, x2 = 0.3572 | 0.413 ± 0.005
318.15 K, 101 kPa, x2 = 0.4854 | 0.393 ± 0.004
318.15 K, 101 kPa, x2 = 0.5616 | 0.384 ± 0.004
318.15 K, 101 kPa, x2 = 0.6719 | 0.364 ± 0.004
318.15 K, 101 kPa, x2 = 0.775 | 0.342 ± 0.004
318.15 K, 101 kPa, x2 = 0.9121 | 0.315 ± 0.004

ClC=C(Cl)Cl + CC(=O)CC(C)C
viscosity [mPa·s], 101.33 kPa
Conditions | x1 = 0.1088 | x1 = 0.1998 | x1 = 0.3286 | x1 = 0.4037 | x1 = 0.5018 | x1 = 0.5921 | x1 = 0.7362 | x1 = 0.7986 | x1 = 0.8859
298.15 K | 0.564 ± 0.007 | 0.578 ± 0.007 | 0.593 ± 0.008 | 0.603 ± 0.008 | 0.616 ± 0.008 | 0.621 ± 0.008 | 0.631 ± 0.008 | 0.63 ± 0.008 | 0.624 ± 0.008
308.15 K | 0.508 ± 0.007 | 0.516 ± 0.007 | 0.533 ± 0.007 | 0.546 ± 0.007 | 0.561 ± 0.007 | 0.574 ± 0.007 | 0.595 ± 0.008 | 0.6 ± 0.008 | 0.605 ± 0.008
318.15 K | 0.464 ± 0.006 | 0.475 ± 0.006 | 0.49 ± 0.006 | 0.5 ± 0.007 | 0.51 ± 0.007 | 0.519 ± 0.007 | 0.533 ± 0.007 | 0.539 ± 0.007 | 0.547 ± 0.007

CC(O)CO (stereo not given) + CC(=O)N(C)C
viscosity [mPa·s], 101 kPa
Conditions | x2 = 0.0807 | x2 = 0.0999 | x2 = 0.2 | x2 = 0.2994 | x2 = 0.4014 | x2 = 0.4996 | x2 = 0.6 | x2 = 0.6954 | x2 = 0.7937 | x2 = 0.8997
293.15 K | 36.91 ± 0.84 | 33.19 ± 0.76 | 19.06 ± 0.46 | 11.57 ± 0.29 | 7.324 ± 0.2 | 4.919 ± 0.14 | 3.403 ± 0.1 | 2.466 ± 0.074 | 1.827 ± 0.056 | 1.349 ± 0.042
303.15 K | 21.61 ± 0.53 | 19.64 ± 0.48 | 12.06 ± 0.3 | 7.768 ± 0.21 | 5.202 ± 0.15 | 3.659 ± 0.11 | 2.637 ± 0.079 | 1.987 ± 0.06 | 1.512 ± 0.047 | 1.151 ± 0.037
313.15 K | 13.49 ± 0.34 | 12.39 ± 0.31 | 8.071 ± 0.21 | 5.477 ± 0.15 | 3.845 ± 0.11 | 2.819 ± 0.084 | 2.108 ± 0.064 | 1.634 ± 0.05 | 1.277 ± 0.04 | 1 ± 0.032
323.15 K | 8.96 ± 0.23 | 8.317 ± 0.22 | 5.673 ± 0.16 | 4.023 ± 0.12 | 2.939 ± 0.087 | 2.229 ± 0.067 | 1.718 ± 0.053 | 1.368 ± 0.043 | 1.097 ± 0.035 | 0.879 ± 0.029

ClC=C(Cl)Cl + CC(C)(C)O
303.15 K, 101.3 kPa
Conditions | viscosity [mPa·s]
x1 = 0.1042 | 1.951 ± 0.025
x1 = 0.2103 | 1.329 ± 0.017
x1 = 0.3164 | 1.018 ± 0.014
x1 = 0.4143 | 0.856 ± 0.012
x1 = 0.5147 | 0.758 ± 0.01
x1 = 0.6204 | 0.689 ± 0.01
x1 = 0.7102 | 0.648 ± 0.009
x1 = 0.8036 | 0.608 ± 0.009
x1 = 0.9088 | 0.562 ± 0.008

NC1CCCCC1 + CC(C)(C)O
298.15 K, 101 kPa
Conditions | viscosity [mPa·s]
x1 = 0.0767 | 4.039 ± 0.046
x1 = 0.1574 | 3.722 ± 0.043
x1 = 0.2426 | 3.444 ± 0.039
x1 = 0.3325 | 3.203 ± 0.037
x1 = 0.4277 | 2.974 ± 0.034
x1 = 0.5285 | 2.749 ± 0.032
x1 = 0.6355 | 2.519 ± 0.029
x1 = 0.7493 | 2.309 ± 0.027
x1 = 0.8706 | 2.106 ± 0.025
